Test results as given in patent US4537899A, “Antiviral acylated 1,2,4-triazole derivatives” (BIOGAL Gyogyszergyar, priority 1982, dated 1985).
≈ marks a conversion by molar mass, not a printed value.

Legend:
Rubeola virus = assay: Antiviral effect against Rubeola virus at concentrations of CT0 (reduction of TCID50 virus titer); format: cell-based, Rubeola virus (strain Judith); conditions: RK-13 cell cultures, log TCID50 difference of control and test compound
[1] = Oral toxicity (LD50) in rats; conditions: rat, in vivo
in vitro = format: cell-based
Description: The antiviral testing of the compounds was carried out in two steps. First the dose-response curve of cytotoxicity was plotted, then the antiviral activity was assayed in cell cultures containing nontoxic amounts of the compound.
1. The cytotoxicity of the compounds was assayed in HeLa and RK-13 cell cultures by quantitating the protein content of the cells [S. Horvath: Cytotoxicity of drugs and diverse chemical agents to cell cultures, Toxicology, 16, 59 (1980)]. From the data of the dose-response curve the 50 percent cytotoxic concentration of the compounds was determined (CT50), i.e. the concentration inhibiting cell proliferation by 50 percent. Similarly from the data of the dose-response curve the highest concentration of the compounds where cell proliferation compared to the control is not inhibited at all, can be determined, too (0 percent cytotoxic concentration, CT0). To simplify matters, in the Table the logarithm of these values is summarized (i.e. log CT0 =1 representing a concentration of 10 μg/ml).

| Structure (SMILES) | Δlog TCID50 (Rubeola virus) | LD50 [1] [mg/kg] | CC50 (in vitro; human, hela cells) [µg/mL] | MNTC (in vitro; human, hela cells) [µg/mL] | CC50 (in vitro; rabbit, rk-13 cells) [µg/mL] | MNTC (in vitro; rabbit, rk-13 cells) [µg/mL] |
| --- | --- | --- | --- | --- | --- | --- |
| CSc1n[nH]c(NC(=O)c2ccccc2C)n1 [Example 47, 3-methylthio-5-(2-methyl-benzoyl-amino)-1H-1,2,4-triazole] | ≥ 6.8 | 3200 | 100 (≈ 403 µM) | 39.8 | 79.4 (≈ 320 µM) | 12.6 |
| CSc1n[nH]c(NC(=O)c2ccccc2Br)n1 [Example 53, 3-methylthio-5-(2-bromo-benzoyl-amino)-1H-1,2,4-triazole] | ≥ 6.8 | – | 126 (≈ 402 µM) | 39.8 | 79.4 (≈ 254 µM) | 25.1 |
| CSc1n[nH]c(NC(=O)c2ccccc2[N+](=O)[O-])n1 [Example 61, 3-methylthio-5-(2-nitro-benzoyl-amino)-1H-1,2,4-triazole] | 3.0 | – | 39.8 (≈ 143 µM) | 10 | 63.1 (≈ 226 µM) | 15.8 |
| CSc1n[nH]c(NC(=O)c2ccccc2Cl)n1 [Example 63, 3-methylthio-5-(2-chloro-benzoyl-amino)-1H-1,2,4-triazole] | ≥ 5.3 | – | 50.1 (≈ 187 µM) | 7.94 | 79.4 (≈ 296 µM) | 15.8 |
| CSc1n[nH]c(NC(=O)c2ccccc2SC)n1 [Example 70, 3-methylthio-5-(2-methylthio-benzoyl-amino)-1H-1,2,4-triazole] | ≥ 5.3 | – | 79.4 (≈ 283 µM) | 20 | 50.1 (≈ 179 µM) | 15.8 |
| CCSc1n[nH]c(NC(=O)c2ccccc2C)n1 [Example 73, 3-ethylthio-5-(2-methyl-benzoyl-amino)-1H-1,2,4-triazole] | ≥ 6.0 | – | 50.1 (≈ 191 µM) | 7.94 | – | – |
